Assay results taken from patent US11414424B2, “Cardiac sarcomere inhibitors” (Cytokinetics, Inc., priority 2018, dated 2022).

Test system: bovine cardiac myofibrils
Test: Myofibril assay: PK/LDH-coupled steady-state ATPase activity of skinned bovine cardiac myofibrils
Assay type: biochemical
Conditions: Ca2+ activating to 75% of maximal rate
In short: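 Steady-state ATPase of detergent-skinned bovine left-ventricular myofibrils (1 mg/mL), PK/LDH-coupled NADH read at 340 nm, in PIPES/MgCl2 buffer pH 6.8 with 50 μM ATP, 0.6 mM EGTA and CaCl2 set for 50% or 75% activation. Inhibition of activity measured.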

| Structure (SMILES) | CDMF75 IC15 |
| --- | --- |
| Cc1ccc(CN2C(=O)CN(c3ncc(Cl)cc3C)C(=O)C2C2COC2)cc1 (stereo not shown) [Compound 733, 1-(5-chloro-3-methyl-pyridin-2-yl)-4-(4-methyl-benzyl)-3-(oxetan-3-yl)-piperazine-2,5-dione] | 11.8 µM |
| N#Cc1cnc(N2CC(=O)N(Cc3ccc(C(F)(F)F)cc3)C(C3COC3)C2=O)c(F)c1 (stereo not shown) [Compound 736, 5-fluoro-6-(3-(oxetan-3-yl)-2,5-dioxo-4-(4-(trifluoromethyl)benzyl)-piperazin-1-yl)nicotinonitrile] | 2.0 µM |
| O=C1C([C@H]2C[C@@H](O)C2)N(Cc2ccc(C(F)(F)F)cc2)C(=O)CN1c1ncc(Cl)cc1F (stereo partly shown) [Compound 739, 1-(5-chloro-3-fluoropyridin-2-yl)-3-((1 s,3s)-3-hydroxycyclobutyl)-4-(4-(trifluoromethyl)benzyl)piperazine-2,5-dione] | 2.2 µM |
| O=C1C(C2CC(O)C2)N(Cc2ccc(C(F)(F)F)cc2)C(=O)CN1c1ncc(Cl)cc1F (stereo not shown) [Compound 740, 1-(5-chloro-3-fluoropyridin-2-yl)-3-(3-hydroxycyclobutyl)-4-(4-(trifluoromethyl)benzyl)piperazine-2,5-dione] | 2.3 µM |
| O=C1C(C2COC2)N(Cc2ccc(C(F)(F)F)cc2)C(=O)CN1c1ccc(Cl)c(F)c1 (stereo not shown) [Compound 747, 1-(4-chloro-3-fluorophenyl)-3-(oxetan-3-yl)-4-(4-(trifluoromethyl)benzyl)-piperazine-2,5-dione] | 3.7 µM |
| O=C1[C@H](C2CC2)N(Cc2ccc(C(F)(F)F)cc2)C(=O)CN1c1ncc(Cl)cc1F [Compound 750, (S)-1-(5-chloro-3-fluoropyridin-2-yl)-3-cyclopropyl-4-(4-(trifluoromethyl)benzyl)piperazine-2,5-dione] | 1.0 µM |
| O=C1[C@H](C2CC2)N(Cc2ccc(F)cc2)C(=O)CN1c1ncc(Cl)cc1F [Compound 751, (S)-1-(5-chloro-3-fluoro-pyridin-2-yl)-3-cyclo-propyl-4-(4-fluorobenzyl)-piperazine-2,5-dione] | 1.3 µM |
| Cc1ccc(CN2C(=O)CN(c3ncc(Cl)cc3F)C(=O)C23COC3)cc1 [Compound 757, 8-(5-chloro-3-fluoropyrldin-2-yl)-5-(4-methylbenzyl)-2-oxa-5,8-diazaspiro[3.5]-nonane-6,9-dione] | 7.2 µM |
| COc1cnc(N2CC(=O)N(Cc3ccc(C)cc3)C(C3COC3)C2=O)c(F)c1 (stereo not shown) [Compound 758, 1-(3-fluoro-5-methoxy-pyridin-2-yl)-4-(4-methyl-benzyl)-3-(oxetan-3-yl)-piperazine-2,5-dione] | 19.4 µM |
| COc1cnc(N2CC(=O)N(Cc3ccc(C)c(F)c3)C(C3COC3)C2=O)c(F)c1 (stereo not shown) [Compound 761, 4-(3-fluoro-4-methyl-benzyl)-1-(3-fluoro-5-methoxypyridin-2-yl)-3-(oxetan-3-yl)piperazine-2,5-dione] | 16.3 µM |
| O=C1CN(c2ncc(Cl)cc2F)C(=O)C2(CC(O)C2)N1Cc1ccc(F)cc1 (stereo not shown) [Compound 764, 8-(5-chloro-3-fluoropyridin-2-yl)-5-(4-fluorobenzyl)-2-hydroxy-5,8-diazaspiro-[3.5]nonane-6,9-dione] | 1.6 µM |
| O=C1CN(c2ncc(Cl)cc2F)C(=O)C2(COC2)N1Cc1ccc(C(F)F)cc1 [Compound 768, 8-(5-chloro-3-fluoropyridin-2-yl)-5-(4-(difluoromethyl)-benzyl)-2-oxa-5,8-diazaspiro[3.5]nonane-6,9-dione] | 4.3 µM |
| COc1cnc(N2CC(=O)N(Cc3ccc(Cl)cc3)C(C3COC3)C2=O)c(F)c1 (stereo not shown) [Compound 769, 4-(4-chlorobenzyl)-1-(3-fluoro-5-methoxypyridin-2-yl)-3-(oxetan-3-yl)-piperazine-2,5-dione] | 7.9 µM |
| COc1cnc(N2CC(=O)N(Cc3ccc(Cl)c(F)c3)C(C3COC3)C2=O)c(F)c1 (stereo not shown) [Compound 772, 4-(4-chloro-3-fluoro-benzyl)-1-(3-fluoro-5-methoxypyridin-2-yl)-3-(oxetan-3-yl)piperazine-2,5-dione] | 7.7 µM |
| COc1cnc(N2CC(=O)N(Cc3ccc(F)c(Cl)c3)C(C3COC3)C2=O)c(F)c1 (stereo not shown) [Compound 775, 4-(3-chloro-4-fluoro-benzyl)-1-(3-fluoro-5-methoxypyridin-2-yl)-3-(oxetan-3-yl)piperazine-2,5-dione] | 8.0 µM |
| COC(=O)C12CC(C3C(=O)N(c4ncc(Cl)cc4F)CC(=O)N3Cc3ccc(C(F)(F)F)cc3)(C1)C2 (stereo not shown) [Compound 778, methyl 3-(4-(5-chloro-3-fluoropyridin-2-yl)-3,6-dioxo-1-(4-(trifluoro-methyl)benzyl)piperazin-2-yl)bicydo[1.1.1]pentane-1-carboxylate] | 2.4 µM |

| Structure (SMILES) | CDMF75 IC15 |
| --- | --- |
| COC(=O)C12CC(C3C(=O)N(c4ncc(Cl)cc4F)CC(=O)N3Cc3ccc(C(F)F)cc3)(C1)C2 (stereo not shown) [Compound 779, methyl 3-(4-(5-chloro-3-fluoropyridin-2-yl)-1-(4-(difluoromethyl)benzyl)-3,6-dioxopiperazin-2-yl)bicyclo[1.1.1]pentane-1-carboxylate] | 2.9 µM |
| COC(=O)C12CC(C3C(=O)N(c4ncc(Cl)cc4F)CC(=O)N3Cc3ccc(F)cc3)(C1)C2 (stereo not shown) [Compound 780, methyl 3-(4-(5-chloro-3-fluoropyridin-2-yl)-1-(4-fluorobenzyl)-3,6-dioxopiperazin-2-yl)bicyclo[1.1.1]pentane-1-carboxylate] | 3.6 µM |
| COC(=O)C12CC(C3C(=O)N(c4ncc(Cl)cc4F)CC(=O)N3Cc3ccc(C)cc3)(C1)C2 (stereo not shown) [Compound 781, methyl 3-(4-(5-chloro-3-fluoropyridin-2-yl)-1-(4-methylbenzyl)-3,6-dioxopiperazin-2-yl)bicyclo[1.1.1]pentane-1-carboxylate] | 4.0 µM |
| CCOC(=O)C12CC(C3C(=O)N(c4ncc(Cl)cc4F)CC(=O)N3Cc3ccc(C(F)(F)F)cc3)(C1)C2 (stereo not shown) [Compound 782, ethyl 3-(4-(5-chloro-3-fluoropyridin-2-yl)-3,6-dioxo-1-(4-(trifluoro-methyl)benzyl)piperazin-2-yl)bicyclo[1.1.1]pentane-1-carboxylate] | 3.6 µM |
| NC(=O)C12CC(C3C(=O)N(c4ncc(Cl)cc4F)CC(=O)N3Cc3ccc(C(F)(F)F)cc3)(C1)C2 (stereo not shown) [Compound 783, 3-(4-(5-chloro-3-fluoro-pyridin-2-yl)-3,6-dioxo-1-(4-(trifluoromethyl)-benzyl)piperazin-2-yl)bicyclo[1.1.1]pentane-1-carboxamide] | 3.08 µM |
| O=C1C(C23CC(CO)(C2)C3)N(Cc2ccc(C(F)(F)F)cc2)C(=O)CN1c1ncc(Cl)cc1F (stereo not shown) [Compound 784, 1-(5-chloro-3-fluoropyridin-2-yl)-3-(3-(hydroxymethyl)bicyclo[1.1.1]pentan-1-yl)-4-(4-(trifluoromethyl)benzyl)piperazine-2,5-dione] | 6.8 µM |
| CC(=O)N1CC2(C1)C(=O)N(c1ccc(Cl)cc1F)CC(=O)N2Cc1ccc(F)cc1 [Compound 785, 2-acetyl-8-(4-chloro-2-fluorophenyl)-5-(4-fluorobenzyl)-2,5,8-triazaspiro[3.5]nonane-6,9-dione] | 5.0 µM |
| NC(=O)C12CC(C3C(=O)N(c4ncc(Cl)cc4F)CC(=O)N3Cc3ccc(C(F)F)cc3)(C1)C2 (stereo not shown) [Compound 790, 3-(4-(5-chloro-3-fluoro-pyridin-2-yl)-1-(4-(difluoromethyl)benzyl)-3,6-dioxopiperazin-2-yl)bicyclo[1.1.1]pentane-1-carboxamide] | 4.9 µM |
| NC(=O)C12CC(C3C(=O)N(c4ncc(Cl)cc4F)CC(=O)N3Cc3ccc(F)cc3)(C1)C2 (stereo not shown) [Compound 791, 3-(4-(5-chloro-3-fluoro-pyridin-2-yl)-1-(4-fluoro-benzyl)-3,6-dioxopiperazin-2-yl)bicyclo[1.1.1]pentane-1-carboxamide] | 2.7 µM |
| Cc1ccc(CN2C(=O)CN(c3ncc(Cl)cc3F)C(=O)C2C23CC(C(N)=O)(C2)C3)cc1 (stereo not shown) [Compound 792, 3-(4-(5-chloro-3-fluoro-pyridin-2-yl)-1-(4-methyl-benzyl)-3,6-dioxopiperazin-2-yl)bicyclo[1.1.1]pentane-1-carboxamide] | 3.8 µM |
| O=C1CN(c2ccc(Cl)cc2F)C(=O)C2(COC2)N1Cc1ccc(F)cc1 [Compound 799, 8-(4-chloro-2-fluoro-phenyl)-5-(4-fluorobenzyl)-2-oxa-5,8-diazaspiro-[3.5]nonane-6,9-dione] | 3.9 µM |
| O=C1CN(c2ncc(Cl)cc2F)C(=O)C2(CC3(COC3)C2)N1Cc1ccc(C(F)(F)F)cc1 [Compound 813, 10-(5-chloro-3-fluoro-pyridin-2-yl)-7-(4-(trifluoro-methyl)benzyl)-2-oxa-7,10-diazadispiro-[3.1.56.14]dodecane-8,11-dione] | 0.4 µM |
| O=C1CN(c2ncc(Cl)cc2F)C(=O)C2(CC3(COC3)C2)N1Cc1ccc(C(F)F)cc1 [Compound 814, 10-(5-chloro-3-fluoro-pyridin-2-yl)-7-(4-(difluoromethyl)benzyl)-2-oxa-7,10-diazadispiro-[3.1.56.14]dodecane-8,11-dione] | 0.8 µM |
| O=C1CN(c2ncc(Cl)cc2F)C(=O)C2(CC3(COC3)C2)N1Cc1ccc(F)cc1 [Compound 815, 10-(5-chloro-3-fluoro-pyridin-2-yl)-7-(4-Fluorobenzyl)-2-oxa-7,10-diazadispiro-[3.1.56.14]dodecane-8,11-dione] | 0.7 µM |
| Cc1ccc(CN2C(=O)CN(c3ncc(Cl)cc3F)C(=O)C23CC2(COC2)C3)cc1 [Compound 816, 10-(5-chloro-3-fluoro-pyridin-2-yl)-7-(4-methyl-benzyl)-2-oxa-7,10-diazadispiro[3.1.56.14]-dodecane-8,11-dione] | 0.9 µM |
